“Also recorded” adds a separate entry of the source. Read-outs that look alike come from different tables or passages of the source.
Columns and labels:
C3a receptor (C3aR) = biological target: T1, C3a receptor (C3aR) (Homo sapiens, UniProt Q16581); assay: Competitive binding with [^125I]-C3a in HMDM; details: for pIC50 ± SEM / IC50 / Receptor Binding Affinity pIC50 ± SE: HMDM
T1 construct: peripheral blood mononuclear cells were isolated from buffy coat (obtained from Australian Red Cross Blood Service, Kelvin Grove); endogenous in cells; host or cells: primary human monocyte-derived macrophages (HMDM) differentiated from CD14+ monocytes of donor buffy coat
T1 sequence (Q16581 1-482): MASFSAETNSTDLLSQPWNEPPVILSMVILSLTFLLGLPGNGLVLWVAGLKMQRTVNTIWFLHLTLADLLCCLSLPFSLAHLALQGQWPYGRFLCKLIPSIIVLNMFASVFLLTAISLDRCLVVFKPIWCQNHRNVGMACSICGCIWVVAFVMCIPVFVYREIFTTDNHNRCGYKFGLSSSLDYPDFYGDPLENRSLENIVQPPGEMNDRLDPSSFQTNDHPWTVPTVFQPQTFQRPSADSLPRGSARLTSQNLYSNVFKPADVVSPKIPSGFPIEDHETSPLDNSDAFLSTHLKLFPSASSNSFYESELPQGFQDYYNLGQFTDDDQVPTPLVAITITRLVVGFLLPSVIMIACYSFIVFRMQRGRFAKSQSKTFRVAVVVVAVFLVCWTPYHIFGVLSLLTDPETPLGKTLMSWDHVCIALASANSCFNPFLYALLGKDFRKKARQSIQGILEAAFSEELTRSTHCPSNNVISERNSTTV
How it was run: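 IC50 values are geometric means, with −log IC50 computed per experiment and given as arithmetic mean ± SE. Cells were CD14+ monocytes from buffy-coat PBMC, differentiated to macrophages and used on day 7. Unbound label was removed by GF/B filtration with 3 cold washes in 50 mM Tris-HCl pH 7.4.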

[1] = tested on: IL1B, IL8, CCL3, EGR1, FOSB and TNF gene expression in HMDMs; assay: Regulation of inflammatory genes in HMDM (qRT-PCR); type: cell-based, human; details: for Induction of gene expression of IL1B, IL8, CCL3, EGR1, FOSB and TNF: HMDMs, 300 nM, 30 minutes, qRT-PCR, fold change from control
Text: Human monocyte-derived macrophages (HMDMS) were isolated from buffy coat of anonymous donors provided by the Australian Red Cross Blood Service at Kelvin Grove, Queensland, Australia. White blood cells were separated from other blood components into different layers using Ficoll-Paque Plus Density Centrifugation (GE Healthcare Bio-Science, Uppsala, Sweden) according to manufacturer's instruction. The isolated white blood cells were repeatedly washed with ice-cold water to remove contaminating erythrocytes. CD14^+ monocytes were positively selected from white blood cells using CD14^+ Macs Magnetic Beads (Miltenyi biotech, Auburn, Calif., USA) after successive magnetic sorting and washings. CD14^+ monocytes (1.5×10^6 cells/mL) were seeded in 10 mL of IMDM supplemented with 10% fetal calf serum (FBS), 10 U/mL streptomycin, 10 U/mL penicillin and 2 mmol L-glutamine (Invitrogen). To generate HMDMS, […] of recombinant human macrophage colony stimulating factor (M-CSF) (Peprotech Inc., rocky Hill, N.J., USA) was added for differentiation. HMDMS were maintained at 37° C. in a humidified incubator with 5% CO2 for a week to fully differentiate. At day 7, the adhered HMDMS were harvested by gentle scraping in saline solution.
HMDMs (2×10^6) in 2 mL of IMDM medium were transferred into each well on a 6-well plate. The cells were left to incubate for 6 h to allow adhesion before being serum starved in serum free IMDM to reduce background noise of the C3a treatment. In the time response experiment, cells were treated with 10 nM of C3a or agonist (compound 8 or 64) for 0.5, 1, 2 or 6 h. In concentration response experiments, cells were treated with 1, 10, 100 or 300 nM for 1 h. To prepare the samples for the microarray experiments, cells were treated with agonist at 100-300 nM for 30 min or 1 h in the absence or presence of the antagonist (e.g. SB-290157 or antagonists). […] Cells were washed with saline solution at the end of each treatment before the RNA extraction step.
Total RNA was extracted from cells using RNeasy Mini Plus kit (Qiagen, USA) according to the manufacturer's instructions. The concentration of the RNA was determined by measuring absorbance at λ=260/280 […] on a nanodrop spectrophotometer (Thermo Scientific), according to the manufacturer's instructions.
Total RNA (2-5 μg) was reverse transcribed with Superscript III (Invitrogen, USA) using random oligo dT primer. Reagents were incubated (50 min, 50° C.; then 10 min, 70° C.) in thermal cyclers (Bio-Rad) to complete the reaction, cDNA samples were stored at −20° C. until further use. All RNA work was performed on ice (4° C.) to prevent degradation of the RNA samples.
cDNA (0.5 μg) samples were prepared with 5 μL SYBR® Green PCR master mix (Applied Biosystems™, CA, USA), 2 μL relevant primers (2 μM) and 1 μL dH2O before being analysed using an ABI 7900HT Fast Real-Time PCR System (Applied Biosystems™, CA, USA) according to the manufacturer's specifications. Fluorescence data was collected during the extension phase (60° C.). The concentration response data for each sample was then normalised against the same data for control housekeeping gene, (18S) to quantify and generate gene expression data. All samples were done in at least duplicate. Primers were designed using the Primer-BLAST software (National Center for Biotechnology Information, USA). Primers contained, amplicons that cross exon-exon boundaries to prevent amplification of genomic DNA. […]

C3aR = biological target: T2, C3aR (Homo sapiens, UniProt Q16581); assay: Calcium mobilization assay in HMDM (agonist/antagonist activity); type: cell-based
T2 construct: peripheral blood mononuclear cells were isolated from buffy coat (obtained from Australian Red Cross Blood Service, Kelvin Grove); endogenous in cells; host or cells: primary human monocyte-derived macrophages (HMDM) differentiated from CD14+ monocytes of donor buffy coat
T2 sequence (Q16581 1-482): T1 sequence (Q16581 1-482)
How it was run: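 Human monocyte-derived macrophages, 5×10^4 cells/well, loaded 1 h at 37 °C with 4 μM Fluo-3 in HBSS/HEPES/probenecid buffer, pH 7.4. Agonist mode: calcium release read 300 s; antagonist mode: 900 s compound preincubation then agonist, read 300 s (ex 485/em 520 nm); compared with hC3a.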

[2] = Table 6, competitive binding with [^125I]-C3a
[3] = Table 6, competitive binding with [^125I]-C3a, read-out: IC50 (converted)
[4] = Table 8, read-out: Receptor Binding Affinity ^125I IC50
[5] = Table 11, [^125I]-C3a, read-out: Receptor Binding Affinity IC50
[6] = Table 9, Ca^2+ mobilization, HMDM
[7] = Table 10, HMDM, read-out: Agonist Activity EC50
[8] = Table 11, Ca^2+ mobilisation, HMDM

Row | Compound | pIC50 ± SEM (C3a receptor (C3aR); [2]) | IC50 (C3a receptor (C3aR); [3]) [nM] | IC50 (C3a receptor (C3aR); [4]) [nM] | Receptor Binding Affinity pIC50 ± SE (C3a receptor (C3aR); Table 11, [^125I]-C3a) | IC50 (C3a receptor (C3aR); [5]) [nM] | Induction of gene expression of IL1B, IL8, CCL3, EGR1, FOSB and TNF [1] | pEC50 ± SEM (C3aR; [6]) | EC50 (C3aR; Table 9, Ca^2+ mobilization, HMDM, read-out: EC50) [nM] | EC50 (C3aR; [7]) [nM] | Apparent Antagonist Activity pEC50 ± SE (C3aR; [8]) | EC50 (C3aR; Table 11, Ca^2+ mobilisation, HMDM, read-out: Apparent Antagonist Activity EC50) [nM] | -Log IC50 (C3a receptor (C3aR); Table 14, binding affinity for C3aR on HMDM) | Function at C3aR (agonist / antagonist) (C3aR; text of Example 100) | Effect of antagonist on gene induction by C3a or compounds 8 or 64 ([1]; SB290157 5 μM, 30 mins preincubation) | IC50 (C3aR; Table 9, antagonist SB290157, Ca^2+ mobilization, HMDM, read-out: IC50 (printed in the EC50 (nM) column)) [nM] | IC50 (C3aR; Table 10, HMDM, read-out: Antagonist Activity Ca^2+ IC50) [nM] | Apparent Antagonist Activity pEC50 ± SE (symbol) (C3aR; Table 11) | Apparent Antagonist Activity pIC50 ± SE (C3aR; [8]) | IC50 (C3aR; Table 11, Ca^2+ mobilisation, HMDM, read-out: Apparent Antagonist Activity IC50) [nM] | Effect of pertussis toxin pre-treatment on gene induction by C3a or compounds 8 or 64 ([1]; 200 ng/mL pertussis toxin overnight, then 300 nM agonist for 30 minutes (not shown))
1 | hC3a: human complement protein C3a, natural ligand of the C3a receptor; unlabelled competitor and reference agonist | 9.64 ± 0.04 | 0.23 | 0.07 | 9.64 ± 0.04 | 0.23 | significantly induce gene expression | 7.19 ± 0.06 | 65 | 45000 | 7.2 ± 0.06 | 65 | – | – | – | – | – | – | – | – | –
2 | Cc1nc(C(c2ccccc2)c2ccccc2)[nH]c1C(=O)N[C@@H](CCCNC(=N)N)C(=O)O [Compound 64, 2-Diphenylmethyl-4-methyl imidazole-5-carboxyl-Arg-OH] | – | – | 7.6 | – | – | significantly induce gene expression; also recorded: induced expression of inflammatory genes | – | – | 24 | – | – | 8.0 | potent full agonist | – | – | – | – | – | – | –
3 | NC(N)=NCCC[C@H](NC(=O)COCC(c1ccccc1)c1ccccc1)C(=O)O [SB290157, reference compound] | 7.42 ± 0.06 | 38 | 11 | 7.42 ± 0.06 | 38 | – | 5.52 ± 0.08 | – | – | – | – | – | – | prevented | 3050 | 1300 | * (The compounds show no agonist activity in calcium mobilisation assays up to 100 μM.) | 5.6 ± 0.09 | 2700 | –
4 | pertussis toxin [reference compound] | – | – | – | – | – | – | – | – | – | – | – | – | – | – | – | – | – | – | – | ablated
